Reference: patent US8389728B2, “Pollen tube stimulants from Arabidopsis pistils” (The Arizona Board of Regents, priority 2009, dated 2013)

What was measured:
[1] = system: Arabidopsis pollen; test: Time lapse imaging of pollen germination and pollen tube growth; assay type: cell-based, Arabidopsis thaliana; conditions: for initiation of germination compared to no compound controls: 0.02 mg compound in 50 μL PGM, time lapse > 12 hours; for rate of pollen germination (in words): 0.02 mg compound in 50 μL of pollen growth medium
Experimental: (§1) Using the optimal concentration of compound for pollen tube stimulation (0.02 mg compound dispensed into 50 μL of pollen growth medium) pollen tube growth were time lapse imaged for a duration of greater than 12 hours. […] For example, Landsberg pollen grew about 130 μm longer in the presence of compound A compared to compound B (FIG. 11B).

[2] = system: pollen from the Arabidopsis Columbia strain; test: Time course of pollen germination and tube growth, Columbia strain; assay type: cell-based, Arabidopsis thaliana
Experimental: as §1

[3] = system: pollen from the Landsberg strain; test: Time course of pollen germination and tube growth, Landsberg strain; assay type: cell-based, Arabidopsis thaliana; conditions: 0.02 mg compound
Experimental: as §1

[4] = system: Arabidopsis thaliana, ecotype Columbia; test: Stimulation of pollen germination and pollen tube growth in vivo (seed yield); conditions: sprayed onto plants after blossoms open
From the text: The stimulation of pollen germination in vivo may be achieved by applying an effective amount of one or both Compound A or Compound B, or functional derivative thereof, to a plant, such as Arabidopsis thaliana, ecotype Columbia, or another plant that is sufficiently evolutionarily related to Arabidopsis, such as a member of family Brassicaceae. The pollen growth stimulant can be applied in any formulation such as described herein and by any method of applying a compound to the flower of a plant. For example, an effective amount of Compound A can be sprayed onto any given number of plants in an area after blossoms open and pistils are exposed.

[5] = Han et al. 2007; cited from earlier work

SMILES | initiation of germination compared to no compound controls [1] | rate of pollen germination (in words) [1] | extent of pollen growth, compound A versus B (in words) [2] | additional pollen tube length in the presence of compound A compared to compound B [3] | seed yield of plants exposed versus not exposed [4] | solubility in ethyl acetate [5]
C[S+]([O-])N1CCCC2CCCCC21 (stereo not drawn) [Compound A, 1-Methylsulfinyldecahydroquinoline] | approximately two hours earlier | enhanced the rate of pollen germination | grew to a similar extent | about 130 μm | increased seed yield | 
C[S+]([O-])N1CCC2CCCCC2C1 (stereo not drawn) [Compound B, 2-Methylsulfinyldecahydroisoquinoline] | approximately two hours earlier | enhanced the rate of pollen germination | grew to a similar extent |  |  | 
O=c1c(O)c(-c2ccc(O)cc2)oc2cc(O)cc(O)c12 [kaempferol] |  |  |  |  |  | highly soluble in ethyl acetate
